What was measured:
PDE5A1 = molecular target: T1, PDE5A1 (Homo sapiens, UniProt O76074); assay: Inhibition of type 5 phosphodiesterase (PDE5) activity, modified SPA test with human platelet lysate; assay type: biochemical; conditions: 0.5 μM cGMP, read-out: PDE5A1 inhibitory values [measured as −log IC50 (mol/l)] (converted)
T1 construct: from tissue; host or cells: human platelets from fresh donor blood (10,000 x g supernatant of sonicated lysate)
Method in brief: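 Enzyme source is lysate from human platelets (10,000 g supernatant). Compound preincubated 5 min at 37° C in Tris pH 7.4 containing 1 μM motapizone and 10 nM of a PDE2 inhibitor. Reaction started with 0.5 μM cGMP ([3H] tracer) and run 15 min; SPA read-out, IC50 by non-linear regression.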

PDE4B1 = molecular target: T2, PDE4B1 (Homo sapiens, UniProt Q07343); assay: Inhibition of type 4 phosphodiesterase (PDE4) activity, modified SPA test with recombinant PDE4B1 expressed in SF21 insect cells; assay type: biochemical; conditions: recombinant PDE4B1, 0.5 μM cAMP, read-out: PDE4B1 inhibitory values [measured as −log IC50 (mol/l)] (converted)
T2 construct: made in house; host or cells: SF21 insect cells (baculovirus; pCRBac vector), 1000 x g supernatant of homogenate
Procedure: Method for Measuring Inhibition of the Type 4 Phosphodiesterase (PDE4) Activity:
The PDE4B1 (GB no. L20966) was a gift of Prof. M. Conti (Stanford University, USA). It was amplified from the original plasmid (pCMV5) via PCR with primers Rb18 (5′-[…]-3′) and Rb10 (5′-[…]-3′) and cloned into the pCRBac vector (Invitrogen, Groningen, NL).
The recombinant baculovirus was prepared by means of homologous recombination in SF9 insect cells. The expression plasmids were cotransfected with Baculo-Gold DNA (Pharmingen, Hamburg) using a standard protocol (Pharmingen, Hamburg). Wt virus-free recombinant virus supernatants were selected using plaque assay methods. After that, high-titre virus supernatants were prepared by amplifying 3 times. PDE4B1 was expressed in SF21 cells by infecting 2×10^6 cells/ml with an MOI (multiplicity of infection) between 1 and 10 in the serum-free medium Insect Express Sf9-S2 (PAA, Pasching, Austria). The cells were cultured at 28° C. for 48-72 hours, after which they were pelleted for 5-10 min at 1000×g and 4° C.
The SF21 insect cells were resuspended, at a concentration of approx. 10^7 cells/ml, in ice-cold (4° C.) homogenization buffer (20 mM Tris, pH 8.2, containing the following additions: 140 mM NaCl, 3.8 mM KCl, 1 mM EGTA, 1 mM MgCl2, 10 mM (3-mercaptoethanol, 2 mM benzamidine, 0.4 mM Pefablock, 10 μM leupeptin, 10 μM pepstatin A, 5 μM trypsin inhibitor) and disrupted by ultrasonication. The homogenate was then centrifuged for 10 min at 1000×g and the supernatant was stored at −80° C. until subsequent use (see below). The protein content was determined by the Bradford method (BioRad, Munich) using BSA as the standard.
PDE4B1 activity was inhibited by the compounds according to the present subject matter in a modified SPA (scintillation proximity assay) test, supplied by Amersham Biosciences (see procedural instructions “phosphodiesterase [3H]cAMP SPA enzyme assay, code TRKQ 7090”), carried out in 96-well microtitre plates (MTP's). The test volume is 100 μl and contains 20 mM Tris buffer (pH 7.4), 0.1 mg/ml of BSA, 5 mM Mg^2+, 0.5 μM cAMP (including about 50,000 cpm of [3H]cAMP), 1 μl of the respective substance dilution in DMSO and sufficient recombinant PDE (1000×g supernatant, see above) to ensure that 10-20% of the cAMP is converted under the said experimental conditions. […] After a preincubation of 5 min at 37° C., the reaction is started by adding the substrate (cAMP) and the assays are incubated for a further 15 min; after that, they are stopped by adding SPA beads (50 μl). In accordance with the manufacturer's instructions, the SPA beads had previously been resuspended in water, but were then diluted 1:3 (v/v) in water; the diluted solution also contains 3 mM IBMX to ensure a complete PDE activity stop. After the beads have been sedimented (>30 min), the MTP's are analyzed in commercially available luminescence detection devices. The corresponding IC50 values of the compounds for the inhibition of PDE4B1 activity are determined from the concentration-effect curves by means of non-linear regression.

T2 sequence (Q07343 whole entry): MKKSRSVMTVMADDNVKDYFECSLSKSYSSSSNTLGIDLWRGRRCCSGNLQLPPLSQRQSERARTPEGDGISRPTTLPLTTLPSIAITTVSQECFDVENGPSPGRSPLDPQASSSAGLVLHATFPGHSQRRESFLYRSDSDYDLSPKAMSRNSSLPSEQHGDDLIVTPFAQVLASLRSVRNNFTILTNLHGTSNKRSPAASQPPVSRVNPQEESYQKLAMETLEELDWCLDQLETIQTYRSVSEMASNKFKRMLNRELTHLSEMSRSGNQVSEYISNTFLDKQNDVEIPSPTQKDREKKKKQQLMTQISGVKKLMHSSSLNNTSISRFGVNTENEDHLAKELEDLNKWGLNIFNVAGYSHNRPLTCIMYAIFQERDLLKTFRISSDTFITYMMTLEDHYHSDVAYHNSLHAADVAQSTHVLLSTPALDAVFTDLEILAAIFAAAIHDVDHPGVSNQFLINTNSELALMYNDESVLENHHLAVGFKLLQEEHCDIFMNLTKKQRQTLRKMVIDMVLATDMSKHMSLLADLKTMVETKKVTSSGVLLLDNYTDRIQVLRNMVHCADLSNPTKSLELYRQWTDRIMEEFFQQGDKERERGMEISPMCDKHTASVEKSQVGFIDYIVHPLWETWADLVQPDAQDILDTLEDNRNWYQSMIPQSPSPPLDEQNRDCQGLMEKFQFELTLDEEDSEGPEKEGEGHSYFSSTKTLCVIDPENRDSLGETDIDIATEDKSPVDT

Compound	IC50 (PDE5A1) [nM]	IC50 (PDE4B1) [nM]
CCC(=O)N1CCC(NC(=O)c2c(C)[nH]c3c(-c4cc(F)ccc4OCC4CC4)ncnc23)CC1 [Example E38, 4-[2-(cyclopropylmethoxy)-5-fluorophenyl]-6-methyl-N-(1-propionylpiperidin-4-yl)-5H-pyrrolo[3,2-d]pyrimidine-7-carboxamide]	< 1	100 to 1000
Cc1[nH]c2c(-c3cc(C(F)(F)F)ccc3OCC3CC3)ncnc2c1C(=O)NC1CCN(C(=O)[C@H](C)O)CC1 [Example F58, 4-[2-(Cyclopropylmethoxy)-5-(trifluoromethyl)phenyl]-N-{1-[(2S)-2-hydroxypropanoyl]piperidin-4-yl}-6-methyl-5H-pyrrolo[3,2-d]pyrimidine-7-carboxamide]	< 1	100 to 1000
COCC(=O)N[C@H]1C[C@@H](F)[C@H](NC(=O)c2c(C)[nH]c3c(-c4cc(C(F)F)ccc4OCC4CC4)ncnc23)C1 (relative stereo) [Example P101, 4-[2-(Cyclopropylmethoxy)-5-(difluoromethyl)phenyl]-N-{(1R*,2R*,4R*)-2-fluoro-4-[(methoxyacetyl)amino]cyclopentyl}-6-methyl-5H-pyrrolo[3,2-d]pyrimidine-7-carboxamide]		< 100
CC(=O)N[C@H]1CC[C@H](NC(=O)c2c(C)[nH]c3c(-c4cc(C(F)F)ccc4OCC4CC4)ncnc23)C[C@H]1F (relative stereo) [Example P199, N-[(1S*,3R*,4S*)-4-(Acetylamino)-3-fluorocyclohexyl]-4-[2-(cyclopropylmethoxy)-5-(difluoromethyl)phenyl]-6-methyl-5H-pyrrolo[3,2-d]pyrimidine-7-carboxamide]	< 1	< 100
Cc1[nH]c2c(-c3cc(C(F)(F)F)ccc3OCC3CC3)ncnc2c1C(=O)N[C@H]1CC[C@@H](NC(=O)CO)CC1 [Example F61, 4-[2-(Cyclopropylmethoxy)-5-(trifluoromethyl)phenyl]-N-{cis-4-[(hydroxyacetyl)amino]cyclohexyl}-6-methyl-5H-pyrrolo[3,2-d]pyrimidine-7-carboxamide]	< 1	< 100
CCC(=O)N[C@H]1CC[C@H](NC(=O)c2c(C)[nH]c3c(-c4cc(C)ccc4OCC4CC4)ncnc23)CC1 [Example E85, 4-[2-(Cyclopropylmethoxy)-5-methylphenyl]-6-methyl-N-[trans-4-(propanoylamino)cyclohexyl]-5H-pyrrolo[3,2-d]pyrimidine-7-carboxamide]	< 1	< 100
COCC(=O)N1C[C@@H](NC(=O)c2c(C)[nH]c3c(-c4cc(C(F)F)ccc4OCC4CC4)ncnc23)C[C@@H]1C [Example P26, 4-[2-(Cyclopropylmethoxy)-5-(difluoromethyl)phenyl]-N-[(3S,5S)-1-(methoxyacetyl)-5-methylpyrrolidin-3-yl]-6-methyl-5H-pyrrolo[3,2-d]pyrimidine-7-carboxamide]	1 to 10	< 100
CC(=O)N1CCC(NC(=O)c2c(C)[nH]c3c(-c4cc(C)ccc4OCC4CC4)nc(C)nc23)CC1 [Example E169, N-(1-Acetylpiperidin-4-yl)-4-[2-(cyclopropylmethoxy)-5-methylphenyl]-2,6-dimethyl-5H-pyrrolo[3,2-d]pyrimidine-7-carboxamide]	< 1	100 to 1000
CCC(=O)N1CCC(NC(=O)c2c(C)[nH]c3c(-c4cc(C(F)F)ccc4OCC4CC4)ncnc23)CC1 [Example P2, 4-[2-(Cyclopropylmethoxy)-5-(difluoromethyl)phenyl]-6-methyl-N-(1-propanoylpiperidin-4-yl)-5H-pyrrolo[3,2-d]pyrimidine-7-carboxamide]	< 1	< 100
Cc1ccc(OCC2CC2)c(-c2nc(C)nc3c(C(=O)NC4CCN(C(=O)CO)CC4)c(C)[nH]c23)c1 [Example F106, 4-[2-(Cyclopropylmethoxy)-5-methylphenyl]-N-[1-(hydroxyacetyl)piperidin-4-yl]-2,6-dimethyl-5H-pyrrolo[3,2-d]pyrimidine-7-carboxamide]	< 1	100 to 1000
CC(=O)N[C@H]1C[C@@H](F)[C@H](NC(=O)c2c(C)[nH]c3c(-c4cc(C(F)F)ccc4OCC4CC4)ncnc23)C1 (relative stereo) [Example P99, N-[(1R*,2R*,4R*)-4-(Acetylamino)-2-fluorocyclopentyl]-4-[2-(cyclopropylmethoxy)-5-(difluoromethyl)phenyl]-6-methyl-5H-pyrrolo[3,2-d]pyrimidine-7-carboxamide]		< 100
CCC(=O)N[C@H]1C[C@@H](F)[C@H](NC(=O)c2c(C)[nH]c3c(-c4cc(C(F)F)ccc4OCC4CC4)ncnc23)C1 (relative stereo) [Example P100, 4-[2-(Cyclopropylmethoxy)-5-(difluoromethyl)phenyl]-N-[(1R*,2R*,4R*)-2-fluoro-4-(propanoylamino)cyclopentyl]-6-methyl-5H-pyrrolo[3,2-d]pyrimidine-7-carboxamide]		< 100
CCC(=O)N[C@H]1CC[C@@H](NC(=O)c2c(C)[nH]c3c(-c4ccc(F)cc4OCC4CC4)ncnc23)CC1 [Example E26, 4-[2-(Cyclopropylmethoxy)-4-fluorophenyl]-6-methyl-N-[cis-4-(propionylamino)cyclohexyl]-5H-pyrrolo[3,2-d]pyrimidine-7-carboxamide]	< 1	
CCOc1ccc(C(F)(F)F)cc1-c1ncnc2c(C(=O)NC3CCN(C(=O)CC)CC3)c(C)[nH]c12 [Example E100, 4-[2-Ethoxy-5-(trifluoromethyl)phenyl]-6-methyl-N-(1-propanoylpiperidin-4-yl)-5H-pyrrolo[3,2-d]pyrimidine-7-carboxamide]	< 1	
COc1cc(OCC2CC2)c(-c2nc(C)nc3c(C(=O)NC4CCN(C(C)=O)CC4)c(C)[nH]c23)cc1F [Example E172, N-(1-Acetylpiperidin-4-yl)-4-[2-(cyclopropylmethoxy)-5-fluoro-4-methoxyphenyl]-2,6-dimethyl-5H-pyrrolo[3,2-d]pyrimidine-7-carboxamide]	< 1	
COc1cc(OCC2CC2)c(-c2ncnc3c(C(=O)N[C@@H]4CCN(C(=O)CO)C[C@H]4O)c(C)[nH]c23)cc1F (relative stereo) [Example F89, 4-[2-(cyclopropylmethoxy)-5-fluoro-4-methoxyphenyl]-N-[(3R*,4R*)-3-hydroxy-1-(hydroxyacetyl)piperidin-4-yl]-6-methyl-5H-pyrrolo[3,2-d]pyrimidine-7-carboxamide]	< 1	
COCC(=O)N1C[C@@H](O)[C@H](NC(=O)c2c(C)[nH]c3c(-c4cc(OC)ccc4OCC4CC4)ncnc23)C1 (relative stereo) [Example E194, 4-[2-(Cyclopropylmethoxy)-5-methoxyphenyl]-N-[(3R*,4R*)-4-hydroxy-1-(methoxyacetyl)pyrrolidin-3-yl]-6-methyl-5H-pyrrolo[3,2-d]pyrimidine-7-carboxamide]	1 to 10	
CCOc1ccc(F)cc1-c1ncnc2c(C(=O)NC3CCN(C(=O)COC)CC3)c(C)[nH]c12 [Example E54, 4-(2-Ethoxy-5-fluorophenyl)-N-[1-(methoxyacetyl)piperidin-4-yl]-6-methyl-5H-pyrrolo[3,2-d]pyrimidine-7-carboxamide]	1 to 10	
COCC(=O)N1CCC(NC(=O)c2c(C)[nH]c3c(-c4cc(F)c(OC)cc4OCC4CC4)ncnc23)CC1 [Example E133, 4-[2-(Cyclopropylmethoxy)-5-fluoro-4-methoxyphenyl]-N-[1-(methoxyacetyl)piperidin-4-yl]-6-methyl-5H-pyrrolo[3,2-d]pyrimidine-7-carboxamide]	< 1	

From US9376442B2, “Methylpyrrolopyrimidinecarboxamides” (Takeda GmbH, priority 2009, dated 2016)
